For 28 compounds, IC50 results are on record in US10214492B2, “Heterocyclic inhibitors of MCT4” (Vettore, LLC, priority 2016, dated 2019).

Each structure is given as a SMILES string.

The target in one experiment is MCT1 (Homo sapiens (Human), UniProt P53985). Kind of experiment: Assay 4: MCT1-mediated lactate transport in BT20 breast cancer cells. The experiment is classed as cell-based. The note with it: Table 27. As to the method:
(§1) 10 μL of a 30 mM DMSO stock of BCECF-AM ester (Life Technologies) is added and the cells are incubated at 37° C. for 5 min. The cells are pelleted (300 g, 5 min), washed once with 1 mL Tyrode's Solution, pH 7.4, re-pelleted (300 g, 5 min), and resuspended in 1 mL Tyrode's Solution, pH 7.4.
Assay 4: MCT1-Mediated Lactate Transport in BT20 Breast Cancer Cells.
Preparation of BCECF loaded cells are as described for Assay 1. Lactate transport assay is as described for Assay 1, except 10 mM L-lactate (rather than 50 mM) is added.

The next experiment has as its target MCT4 (Homo sapiens (Human), UniProt O15427). Description: Assay 3: MCT4-mediated lactate transport in MDA-MB-231 breast cancer cells. As to conditions: MDA-MB-231 cells; lactate transport. The class given is cell-based. The procedure: as §1
MCT4 activity may be assessed by monitoring the intracellular pH change that accompanies lactate/proton symport, using the pH-sensitive fluorescent dye 2′,7′-bis-(carboxyethyl)-5(6)-carboxyfluorescein (BCECF), in a manner similar to that previously reported for MCT1 and MCT4. The following is an exemplary procedure for assaying MCT4 activity of the compounds of Formula (I).

MCT1, sequence (P53985 whole entry): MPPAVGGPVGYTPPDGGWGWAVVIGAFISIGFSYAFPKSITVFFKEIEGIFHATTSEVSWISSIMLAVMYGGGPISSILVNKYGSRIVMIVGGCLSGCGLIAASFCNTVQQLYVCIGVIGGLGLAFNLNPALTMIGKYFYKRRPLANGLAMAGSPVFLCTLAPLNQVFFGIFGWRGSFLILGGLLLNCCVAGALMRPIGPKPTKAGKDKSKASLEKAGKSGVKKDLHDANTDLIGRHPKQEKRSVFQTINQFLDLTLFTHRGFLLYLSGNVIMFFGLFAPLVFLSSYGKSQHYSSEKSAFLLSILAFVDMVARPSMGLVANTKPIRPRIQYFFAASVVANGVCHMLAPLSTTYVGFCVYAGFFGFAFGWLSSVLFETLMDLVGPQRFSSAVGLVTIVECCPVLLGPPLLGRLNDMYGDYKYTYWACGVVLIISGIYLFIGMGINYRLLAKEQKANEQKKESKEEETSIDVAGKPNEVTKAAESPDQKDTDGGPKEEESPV
MCT1, sequence (P35613 140-385 partner): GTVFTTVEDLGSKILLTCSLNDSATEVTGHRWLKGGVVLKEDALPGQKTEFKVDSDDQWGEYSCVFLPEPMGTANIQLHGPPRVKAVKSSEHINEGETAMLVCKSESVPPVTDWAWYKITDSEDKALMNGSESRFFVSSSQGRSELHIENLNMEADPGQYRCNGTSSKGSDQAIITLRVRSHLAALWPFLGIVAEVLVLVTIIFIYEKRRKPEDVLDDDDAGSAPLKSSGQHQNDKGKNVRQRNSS
MCT4, sequence (O15427 whole entry, looked up): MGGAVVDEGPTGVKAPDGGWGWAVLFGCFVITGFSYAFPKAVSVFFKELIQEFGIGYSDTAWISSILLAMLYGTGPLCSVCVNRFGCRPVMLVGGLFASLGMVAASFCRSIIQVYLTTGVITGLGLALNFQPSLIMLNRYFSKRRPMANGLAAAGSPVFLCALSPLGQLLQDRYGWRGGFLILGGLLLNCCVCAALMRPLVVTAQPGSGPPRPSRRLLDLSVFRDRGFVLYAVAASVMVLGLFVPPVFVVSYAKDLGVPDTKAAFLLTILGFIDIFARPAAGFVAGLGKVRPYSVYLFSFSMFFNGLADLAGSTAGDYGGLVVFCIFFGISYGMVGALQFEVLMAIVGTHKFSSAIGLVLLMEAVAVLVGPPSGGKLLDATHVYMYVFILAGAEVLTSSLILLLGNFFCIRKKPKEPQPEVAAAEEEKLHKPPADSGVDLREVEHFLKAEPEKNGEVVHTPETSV
MCT4, sequence (P35613 whole entry partner, looked up): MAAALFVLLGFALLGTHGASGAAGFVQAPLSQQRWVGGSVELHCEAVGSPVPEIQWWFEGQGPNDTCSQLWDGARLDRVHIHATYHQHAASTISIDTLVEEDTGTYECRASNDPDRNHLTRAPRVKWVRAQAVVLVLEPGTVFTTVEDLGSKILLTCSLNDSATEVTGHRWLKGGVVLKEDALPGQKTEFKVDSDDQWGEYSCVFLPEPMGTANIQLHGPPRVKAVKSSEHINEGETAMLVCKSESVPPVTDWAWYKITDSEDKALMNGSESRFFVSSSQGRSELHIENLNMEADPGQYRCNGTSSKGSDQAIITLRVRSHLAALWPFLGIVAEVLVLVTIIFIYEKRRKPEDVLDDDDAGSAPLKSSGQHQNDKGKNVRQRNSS

Turning to `CC(C)(OCc1cc(-c2cccc(OC3CC3)c2)n(-c2ccccc2Br)n1)C(=O)O` [Example 182, 2-([1-(2-Bromophenyl)-5-(3-cyclopropoxy-phenyl)-1H-pyrazol-3-yl]methoxy)-2-methylpropanoic acid], the IC50 is 12000 nM against MCT1 and 5.9 nM on MCT4.
`CC(C)(OCc1cc(-c2cccc(OC3CC3)c2)n(-c2ccc(Cl)cc2Cl)n1)C(=O)O` [Example 184, 2-([5-(3-Cyclopropoxyphenyl)-1-(2,4-dichlorophenyl)-1H-pyrazol-3-yl]methoxy)-2-methylpropanoic acid]: the results for the half-inhibitory concentration (IC50) at MCT1 and against MCT4 were > 33000 nM and 22 nM, respectively.
Take `CC(C)(OCc1cc(-c2cccc(OC3CC3)c2)n(-c2cc(Cl)ccc2Cl)n1)C(=O)O` [Example 185, 2-([5-(3-Cyclopropoxyphenyl)-1-(2,5-dichlorophenyl)-1H-pyrazol-3-yl]methoxy)-2-methylpropanoic acid]: the IC50 against MCT1 was determined as 17000 nM; on MCT4, 9.3 nM.
Consider `CC(C)(OCc1cc(-c2cccc(OC3CC3)c2)n(-c2ccccc2OC(F)F)n1)C(=O)O` [Example 186, 2-([5-(3-Cyclopropoxyphenyl)-1-[2-(difluoromethoxy)phenyl]-1H-pyrazol-3-yl]-methoxy)-2-methylpropanoic acid], for which the half-inhibitory concentration (IC50) against MCT1 was 90000 nM; on MCT4, 21.5 nM.
As for `CCOc1ccccc1-n1nc(COC(C)(C)C(=O)O)cc1-c1cccc(OC2CC2)c1` [Example 187, 2-([5-(3-cyclopropoxyphenyl)-1-(2-ethoxy-phenyl)-1H-pyrazol-3-yl]methoxy)-2-methylpropanoic acid], the half-maximal inhibitory concentration (IC50) was 63000 nM at MCT1 and 43 nM against MCT4.
Regarding `CC(C)c1ccccc1-n1nc(COC(C)(C)C(=O)O)cc1-c1cccc(OC2CC2)c1` [Example 189, 2-([5-(3-cyclopropoxyphenyl)-1-[2-(propan-2-yl)phenyl]-1H-pyrazol-3-yl]methoxy)-2-methylpropanoic acid], the IC50 at MCT1 is 22000 nM; on MCT4 it was 18 nM.
Regarding `CC(C)(OCc1cc(-c2cccc(OC3CC3)c2)n(-c2ccccc2C(F)(F)F)n1)C(=O)O` [Example 190, 2-([5-(3-Cyclopropoxyphenyl)-1-[2-(trifluoromethyl)phenyl]-1H-pyrazol-3-yl]-methoxy)-2-methylpropanoic acid], the figures for the half-maximal inhibitory concentration (IC50) on MCT1 and on MCT4 were 31000 nM and 7.8 nM, respectively.
Take `CCn1ncc2cccc(-n3nc(COC(C)(C)C(=O)O)cc3-c3cccc(OC4CC4)c3)c21` [Example 193, 2-([5-(3-Cyclopropoxyphenyl)-1-(1-ethyl-1H-indazol-7-yl)-1H-pyrazol-3-yl]-methoxy)-2-methylpropanoic acid]: the IC50 against MCT1 is 38000 nM; against MCT4 it was 18 nM.
Taken in the same sequence, the figures for `Cn1cnc2cccc(-n3nc(COC(C)(C)C(=O)O)cc3-c3cccc(OC4CC4)c3)c21` [Example 194, 2-([5-(3-Cyclopropoxyphenyl)-1-(1-methyl-1H-1,3-benzodiazol-7-yl)-1H-pyrazol-3-yl]-methoxy)-2-methylpropanoic acid] were > 100000 nM and 3500 nM.
Take `CC(C)(OCc1cc(-c2cc3ccccc3s2)n(Cc2ccccc2Cl)n1)C(=O)O` [Example 195]: the IC50 is 13000 nM against MCT1 and 5.3 nM against MCT4.
For the compound `CCOc1cccc(-c2cc(COC(C)(C)C(=O)O)nn2Cc2ccccc2OCC)c1` [Example 199, 2-([5-(3-Ethoxyphenyl)-1-[(2-ethoxy-phenyl)methyl]-1H-pyrazol-3-yl]methoxy)-2-methylpropanoic acid], the half-maximal inhibitory concentration (IC50) against MCT1 came out at 34000 nM; against MCT4 it was 9.6 nM.
Taken in the same sequence, the figures for `CCOc1cc(OC)cc(-c2cc(COC(C)(C)C(=O)O)nn2Cc2ccccc2OCC)c1` [Example 200, 2-([5-(3-Ethoxy-5-methoxyphenyl)-1-[(2-ethoxyphenyl)methyl]-1H-pyrazol-3-yl]-methoxy)-2-methylpropanoic acid] were 17000 nM and 1.9 nM.
On the same counts, the results for `CC(C)(OCc1cc(-c2ccc3c(c2)OCCO3)n(Cc2ccccc2Cl)n1)C(=O)O` [Example 203, 2-([1-[(2-Chlorophenyl)methyl]-5-(2,3-dihydro-1,4-benzodioxin-6-yl)-1H-pyrazol-3-yl]methoxy)-2-methylpropanoic acid] are 93000 nM and 185 nM.
On the same counts, the results for `CC(C)(OCc1cc(-c2ccc3c(c2)OCO3)n(Cc2ccccc2Cl)n1)C(=O)O` [Example 204, [[5-(2H-1,3-Benzodioxol-5-yl)-1-[(2-chloro-phenyl)methyl]-1H-pyrazol-3-yl]methoxy)-2-methylpropanoic acid] are > 100000 nM and 40 nM.
On to `Cn1cc(-c2cc(COC(C)(C)C(=O)O)nn2Cc2ccccc2Cl)cn1` [Example 205, 2-([1-[(2-Chlorophenyl)methyl]-5-(1-methyl-1H-pyrazol-4-yl)-1H-pyrazol-3-yl]-methoxy)-2-methylpropanoic acid], for which the concentration for half-maximal inhibition (IC50) at MCT1 is > 100000 nM; on MCT4, 890 nM.
Consider `CCOc1ccccc1Cn1nc(COC(C)(C)C(=O)O)cc1-c1ccc2cnn(C)c2c1` [Example 207, 2-([1-[(2-Ethoxyphenyl)methyl]-5-(1-methyl-1H-indazol-6-yl)-lH-pyrazol-3-yl]-methoxy)-2-methylpropanoic acid], for which the values for the half-inhibitory concentration (IC50) against MCT1 and at MCT4 were 3200 nM and 15 nM, respectively.
Take `CCOc1cc(OCC)cc(-c2cc(COC(C)(C)C(=O)O)nn2Cc2ccccc2OCC)c1` [Example 208, 2-([5-(3,5-Diethoxyphenyl)-1-[(2-ethoxy-phenyl)methyl]-1H-pyrazol-3-yl]methoxy)-2-methylpropanoic acid]: the half-maximal inhibitory concentration (IC50) against MCT1 worked out at 17000 nM; on MCT4 it was 7.5 nM.
In the case of `Cn1ncc2cc(-c3cc(COC(C)(C)C(=O)O)nn3Cc3ccccc3Cl)ccc21` [Example 209, 2-([1-[(2-Chlorophenyl)methyl]-5-(1-methyl-1H-indazol-5-yl)-1H-pyrazol-3-yl]-methoxy)-2-methyl propanoic acid], the concentration for half-maximal inhibition (IC50) stood at 95000 nM on MCT1 and 31 nM on MCT4.
On the same counts, the results for `CCOc1ccccc1Cn1nc(COC(C)(C)C(=O)O)cc1-c1cccc(OC2CCC2)c1` [Example 210, 2-([5-(3-cyclobutoxyphenyl)-1-[(2-ethoxy-phenyl)methyl]-1H-pyrazol-3-yl]methoxy)-2-methylpropanoic acid] are 7300 nM and 2.4 nM.
On the same counts, the results for `COc1cc(OC)cc(-c2cc(COC(C)(C)C(=O)O)nn2CCc2ccccc2)c1` [Example 212, 2-([5-(3,5-Dimethoxyphenyl)-1-(2-phenyl-ethyl)-1H-pyrazol-3-yl]methoxy)-2-methylpropanoic acid] are > 100000 nM and 195 nM.
On the same counts, the results for `CCOc1cc(OCC)cc(-c2cc(COC(C)(C)C(=O)O)nn2Cc2ccccc2Cl)c1` [Example 213, 2-([1-[(2-Chlorophenyl)methyl]-5-(3,5-diethoxyphenyl)-1H-pyrazol-3-yl]methoxy)-2-methylpropanoic acid] are 12000 nM and 12 nM.
On to `CN(C)c1ccccc1Cn1nc(COC(C)(C)C(=O)O)cc1-c1cccc(OC2CC2)c1` [Example 214, 2-([5-(3-Cyclopropoxyphenyl)-1-[[2-(dimethylamino)phenyl)methyl]-1H-pyrazol-3-yl]methoxy)-2-methylpropanoic acid], for which the half-maximal inhibitory concentration (IC50) on MCT1 was found to be 94000 nM; on MCT4, 6 nM.
Turning to `COc1cccc(-c2cc(COC(C)(C)C(=O)O)nn2-c2ccccc2OC(C)C)c1` [Example 215, 2-([5-(3-Methoxyphenyl)-1-[2-(propan-2-yloxy)phenyl]-l//-pyrazol-3-yl]mcthoxy)-2-methylpropanoic acid], the IC50 at MCT1 was > 100000 nM; on MCT4, 360 nM.
As to `CC[C@@](C)(OCc1cc(-c2cccc(OC3CC3)c2)n(-c2cccc3cnn(C)c23)n1)C(=O)O` [Example 217, (2R)-2-([5-(3-cyclopropoxyphenyl)-1-(1-methyl-1H-indazol-7-yl)-1H-pyrazol-3-yl]methoxy)-2-methylbutanoic acid], the IC50 against MCT1 was determined as 18000 nM; against MCT4, 8.7 nM.
With `CC[C@](C)(OCc1cc(-c2cccc(OC)c2)n(Cc2ccccc2Cl)n1)C(=O)O` [Example 218, (2S)-2-([1-[(2-chlorophenyl)methyl]-5-(3-methoxyphenyl)-1H-pyrazol-3-yl]methoxy)-2-methylbutanoic acid], the IC50 at MCT1 amounted to 22000 nM; on MCT4, 7.5 nM.
With `CC[C@@](C)(OCc1cc(-c2cccc(OC)c2)n(Cc2ccccc2Cl)n1)C(=O)O` [Example 219, (2R)-2-([1-[(2-chlorophenyl)methyl]-5-(3-methoxyphenyl)-1H-pyrazol-3-yl]methoxy)-2-methylbutanoic acid], the IC50 worked out at 14000 nM against MCT1 and 4 nM against MCT4.
Taken in the same sequence, the figures for `CC[C@@](C)(OCc1cc(-c2cccc(OCC(C)(C)C)c2)n(-c2cccc3cnn(C)c23)n1)C(=O)O` [Example 223, (2R)-2-([5-[3-(2,2-Dimethyl-propoxy)phenyl]-1-(1-methyl-1H-indazol-7-yl)-1H-pyrazol-3-yl]methoxy)-2-methyl-butanoic acid] were 21000 nM and 0.3 nM.
Take `CC(C)Oc1ncc(-c2cc(COC(C)(C)C(=O)O)nn2Cc2ccccc2Cl)o1` [Example 227, 2-([1-[(2-Chlorophenyl)methyl]-5-[2-(propan-2-yloxy)-1,3-oxazol-5-yl]-1H-pyrazol-3-yl)methoxy)-2-methylpropanoic acid]: the IC50 against MCT1 was 37000 nM; against MCT4, 690 nM.

Usually IC50 stands for the point on the concentration scale where inhibition reaches its midpoint.
